Laboratory results published in ChEMBL document CHEMBL5705888, “Substrate specificity and inhibitors of LRRK2, a protein kinase mutated in Parkinson's disease” (Biochem J, 2009).

How the values were obtained:
[1] = biological target: Serine/threonine-protein kinase PAK 4 (Homo sapiens) (UniProt O96013); assay: Inhibition of PAK4 (unknown origin) at 1 uM incubated for 30 mins in presence of [gamma-33P]ATP by multidrop micro reagent based assay relative to control
[2] = biological target: SRSF protein kinase 1 (Homo sapiens) (UniProt Q96SB4); assay: Inhibition of SRPK1 (unknown origin) at 1 uM incubated for 30 mins in presence of [gamma-33P]ATP by multidrop micro reagent based assay relative to control; values are per cent of control
SRSF protein kinase 1 (Homo sapiens), sequence (Q96SB4 whole entry): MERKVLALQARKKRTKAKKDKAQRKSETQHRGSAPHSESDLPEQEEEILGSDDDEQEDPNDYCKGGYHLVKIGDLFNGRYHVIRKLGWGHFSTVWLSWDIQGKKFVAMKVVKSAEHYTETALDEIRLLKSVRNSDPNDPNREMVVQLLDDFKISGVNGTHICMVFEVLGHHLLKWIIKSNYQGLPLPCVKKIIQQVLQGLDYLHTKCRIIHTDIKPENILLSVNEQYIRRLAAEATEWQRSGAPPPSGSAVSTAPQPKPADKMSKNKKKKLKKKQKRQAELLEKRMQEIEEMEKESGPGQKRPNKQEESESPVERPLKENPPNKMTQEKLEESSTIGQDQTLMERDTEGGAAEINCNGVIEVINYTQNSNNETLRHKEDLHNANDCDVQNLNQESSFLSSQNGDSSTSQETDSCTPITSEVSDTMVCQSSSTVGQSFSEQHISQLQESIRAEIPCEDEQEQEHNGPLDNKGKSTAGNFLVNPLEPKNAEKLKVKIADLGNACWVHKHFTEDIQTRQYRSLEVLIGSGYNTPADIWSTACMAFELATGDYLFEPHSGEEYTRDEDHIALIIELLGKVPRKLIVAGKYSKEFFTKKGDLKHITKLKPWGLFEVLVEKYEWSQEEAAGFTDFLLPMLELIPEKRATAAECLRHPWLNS

[3] = biological target: Casein kinase 2 (Homo sapiens) (UniProt P67870+P68400+P19784+Q8NEV1); assay: Inhibition of CK2 (unknown origin) at 1 uM incubated for 30 mins in presence of [gamma-33P]ATP by multidrop micro reagent based assay relative to control; values are per cent of control
Homo sapiens [4] = species: Homo sapiens; assay: Inhibition of VEGFR (unknown origin) at 1 uM incubated for 30 mins in presence of [gamma-33P]ATP by multidrop micro reagent based assay relative to control; values are per cent of control
[5] = biological target: Mitogen-activated protein kinase 9 (Homo sapiens) (UniProt P45984); assay: Inhibition of JNK2 (unknown origin) at 1 uM incubated for 30 mins in presence of [gamma-33P]ATP by multidrop micro reagent based assay relative to control; values are per cent of control
Mitogen-activated protein kinase 9 (Homo sapiens), sequence (P45984 whole entry, looked up): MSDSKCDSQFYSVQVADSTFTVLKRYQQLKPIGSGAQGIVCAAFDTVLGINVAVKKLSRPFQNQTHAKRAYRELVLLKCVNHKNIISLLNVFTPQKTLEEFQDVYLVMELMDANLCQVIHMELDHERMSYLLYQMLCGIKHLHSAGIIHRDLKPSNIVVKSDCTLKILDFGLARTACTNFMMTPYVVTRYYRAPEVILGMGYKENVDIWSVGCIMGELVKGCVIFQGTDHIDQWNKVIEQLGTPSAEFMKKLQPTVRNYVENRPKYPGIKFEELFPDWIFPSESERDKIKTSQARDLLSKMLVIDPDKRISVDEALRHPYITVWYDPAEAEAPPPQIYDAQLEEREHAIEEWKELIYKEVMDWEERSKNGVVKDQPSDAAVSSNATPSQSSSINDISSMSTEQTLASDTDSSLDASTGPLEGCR

[6] = biological target: Mitogen-activated protein kinase 14 (Homo sapiens) (UniProt Q16539); assay: Inhibition of p38alpha MAPK (unknown origin) at 10 uM incubated for 30 mins in presence of [gamma-33P]ATP by multidrop micro reagent based assay relative to control; values are per cent of control
Mitogen-activated protein kinase 14 (Homo sapiens), sequence (Q16539 whole entry): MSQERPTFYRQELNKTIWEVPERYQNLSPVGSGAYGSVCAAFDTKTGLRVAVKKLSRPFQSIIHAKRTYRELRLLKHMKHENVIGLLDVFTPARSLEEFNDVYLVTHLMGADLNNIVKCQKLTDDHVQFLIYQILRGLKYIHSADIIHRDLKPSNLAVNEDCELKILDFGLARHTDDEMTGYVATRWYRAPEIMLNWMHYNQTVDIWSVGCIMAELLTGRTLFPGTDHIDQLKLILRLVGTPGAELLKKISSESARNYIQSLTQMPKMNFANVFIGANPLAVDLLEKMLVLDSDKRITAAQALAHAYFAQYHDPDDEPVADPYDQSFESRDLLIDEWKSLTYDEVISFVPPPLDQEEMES

Homo sapiens [7] = species: Homo sapiens; assay: Residual activity of VEGFR (unknown origin) at 10 uM incubated for 30 mins in presence of [gamma-33P]ATP by multidrop micro reagent based assay relative to control
[8] = biological target: Mitogen-activated protein kinase 8 (Homo sapiens) (UniProt P45983); assay: Inhibition of JNK1 (unknown origin) at 10 uM incubated for 30 mins in presence of [gamma-33P]ATP by multidrop micro reagent based assay relative to control; values are per cent of control
Mitogen-activated protein kinase 8 (Homo sapiens), sequence (P45983 whole entry): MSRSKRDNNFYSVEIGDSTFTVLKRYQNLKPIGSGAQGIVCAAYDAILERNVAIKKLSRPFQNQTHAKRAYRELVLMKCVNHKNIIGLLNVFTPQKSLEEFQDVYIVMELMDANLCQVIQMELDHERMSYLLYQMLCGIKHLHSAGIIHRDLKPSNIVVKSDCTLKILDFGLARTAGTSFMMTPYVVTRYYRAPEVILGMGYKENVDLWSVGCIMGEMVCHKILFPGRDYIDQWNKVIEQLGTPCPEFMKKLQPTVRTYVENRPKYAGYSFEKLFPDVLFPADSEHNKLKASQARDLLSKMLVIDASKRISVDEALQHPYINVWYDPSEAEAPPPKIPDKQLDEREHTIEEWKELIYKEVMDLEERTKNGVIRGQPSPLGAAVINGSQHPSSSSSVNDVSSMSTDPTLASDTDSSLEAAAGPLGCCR

[9] = biological target: Mitogen-activated protein kinase 11 (Homo sapiens) (UniProt Q15759); assay: Inhibition of p38beta MAPK (unknown origin) at 10 uM incubated for 30 mins in presence of [gamma-33P]ATP by multidrop micro reagent based assay relative to control; values are per cent of control
Mitogen-activated protein kinase 11 (Homo sapiens), sequence (Q15759 whole entry): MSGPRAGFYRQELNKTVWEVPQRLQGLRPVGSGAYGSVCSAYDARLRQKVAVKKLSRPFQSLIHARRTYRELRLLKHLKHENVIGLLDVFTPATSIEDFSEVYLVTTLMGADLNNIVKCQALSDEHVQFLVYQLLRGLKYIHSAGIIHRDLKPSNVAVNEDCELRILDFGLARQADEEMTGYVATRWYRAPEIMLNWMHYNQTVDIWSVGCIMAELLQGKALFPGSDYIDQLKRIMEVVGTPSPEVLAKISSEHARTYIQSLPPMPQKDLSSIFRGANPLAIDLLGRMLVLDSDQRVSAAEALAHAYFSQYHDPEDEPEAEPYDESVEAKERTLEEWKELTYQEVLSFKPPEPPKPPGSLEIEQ

[10] = biological target: T1, Serine/threonine-protein kinase 3 (Homo sapiens) (UniProt Q13188); assay: Inhibition of MST2 (unknown origin) at 10 uM incubated for 30 mins in presence of [gamma-33P]ATP by multidrop micro reagent based assay relative to control; values are per cent of control
T1 sequence (whole entry): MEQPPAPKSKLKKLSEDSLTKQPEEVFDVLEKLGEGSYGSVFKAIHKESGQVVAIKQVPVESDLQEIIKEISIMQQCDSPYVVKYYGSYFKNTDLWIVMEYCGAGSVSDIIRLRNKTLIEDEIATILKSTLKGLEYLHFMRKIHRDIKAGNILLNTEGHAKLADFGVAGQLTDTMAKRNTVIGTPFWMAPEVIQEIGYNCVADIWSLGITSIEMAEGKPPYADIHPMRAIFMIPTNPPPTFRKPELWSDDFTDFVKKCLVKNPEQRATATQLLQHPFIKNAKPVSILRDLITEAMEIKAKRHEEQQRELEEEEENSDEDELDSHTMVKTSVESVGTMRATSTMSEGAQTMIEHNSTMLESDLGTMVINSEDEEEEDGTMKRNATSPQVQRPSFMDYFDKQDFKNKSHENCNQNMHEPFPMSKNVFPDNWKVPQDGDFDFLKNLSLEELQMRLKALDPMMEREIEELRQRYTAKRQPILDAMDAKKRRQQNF

[11] = biological target: T2, Serine/threonine-protein kinase BRSK2 (Homo sapiens) (UniProt Q8IWQ3); assay: Inhibition of BRSK2 (unknown origin) at 10 uM incubated for 30 mins in presence of [gamma-33P]ATP by multidrop micro reagent based assay relative to control
T2 sequence (whole entry): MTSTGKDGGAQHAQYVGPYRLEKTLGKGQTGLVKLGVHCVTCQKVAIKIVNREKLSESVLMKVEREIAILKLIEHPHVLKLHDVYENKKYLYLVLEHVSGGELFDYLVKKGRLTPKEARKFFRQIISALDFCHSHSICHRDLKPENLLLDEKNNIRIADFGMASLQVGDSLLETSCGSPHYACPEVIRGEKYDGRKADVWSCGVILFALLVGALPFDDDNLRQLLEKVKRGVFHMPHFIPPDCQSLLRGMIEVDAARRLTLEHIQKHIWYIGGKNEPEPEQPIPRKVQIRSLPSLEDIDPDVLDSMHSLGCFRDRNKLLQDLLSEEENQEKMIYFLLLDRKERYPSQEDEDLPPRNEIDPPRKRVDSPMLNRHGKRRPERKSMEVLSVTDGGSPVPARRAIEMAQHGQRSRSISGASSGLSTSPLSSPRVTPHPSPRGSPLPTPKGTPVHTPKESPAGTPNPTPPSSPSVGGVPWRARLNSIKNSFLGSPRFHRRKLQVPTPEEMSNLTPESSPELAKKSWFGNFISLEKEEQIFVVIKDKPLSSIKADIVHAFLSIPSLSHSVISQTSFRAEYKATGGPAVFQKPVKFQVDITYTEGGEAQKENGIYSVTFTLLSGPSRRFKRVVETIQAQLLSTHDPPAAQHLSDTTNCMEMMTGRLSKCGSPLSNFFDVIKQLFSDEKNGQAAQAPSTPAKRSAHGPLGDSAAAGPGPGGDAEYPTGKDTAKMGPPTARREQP

[12] = biological target: Serine/threonine-protein kinase Chk2 (Homo sapiens) (UniProt O96017); assay: Inhibition of CHK2 (unknown origin) at 10 uM incubated for 30 mins in presence of [gamma-33P]ATP by multidrop micro reagent based assay relative to control; values are per cent of control
Serine/threonine-protein kinase Chk2 (Homo sapiens), sequence (O96017 whole entry): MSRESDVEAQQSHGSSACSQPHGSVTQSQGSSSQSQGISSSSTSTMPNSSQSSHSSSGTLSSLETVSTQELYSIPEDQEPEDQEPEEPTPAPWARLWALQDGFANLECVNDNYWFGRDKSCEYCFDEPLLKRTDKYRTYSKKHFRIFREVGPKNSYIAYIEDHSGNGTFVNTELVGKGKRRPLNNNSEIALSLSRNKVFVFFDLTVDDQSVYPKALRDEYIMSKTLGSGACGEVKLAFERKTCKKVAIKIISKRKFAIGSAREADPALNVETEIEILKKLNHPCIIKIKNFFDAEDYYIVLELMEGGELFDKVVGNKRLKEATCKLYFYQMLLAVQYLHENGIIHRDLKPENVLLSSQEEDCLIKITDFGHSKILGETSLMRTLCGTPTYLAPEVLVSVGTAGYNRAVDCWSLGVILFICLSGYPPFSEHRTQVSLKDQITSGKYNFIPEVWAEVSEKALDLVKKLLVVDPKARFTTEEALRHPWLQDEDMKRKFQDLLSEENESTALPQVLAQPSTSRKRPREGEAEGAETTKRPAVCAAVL

Serine/threonine-protein kinase PAK 4 (Homo sapiens), sequence (O96013 whole entry, looked up): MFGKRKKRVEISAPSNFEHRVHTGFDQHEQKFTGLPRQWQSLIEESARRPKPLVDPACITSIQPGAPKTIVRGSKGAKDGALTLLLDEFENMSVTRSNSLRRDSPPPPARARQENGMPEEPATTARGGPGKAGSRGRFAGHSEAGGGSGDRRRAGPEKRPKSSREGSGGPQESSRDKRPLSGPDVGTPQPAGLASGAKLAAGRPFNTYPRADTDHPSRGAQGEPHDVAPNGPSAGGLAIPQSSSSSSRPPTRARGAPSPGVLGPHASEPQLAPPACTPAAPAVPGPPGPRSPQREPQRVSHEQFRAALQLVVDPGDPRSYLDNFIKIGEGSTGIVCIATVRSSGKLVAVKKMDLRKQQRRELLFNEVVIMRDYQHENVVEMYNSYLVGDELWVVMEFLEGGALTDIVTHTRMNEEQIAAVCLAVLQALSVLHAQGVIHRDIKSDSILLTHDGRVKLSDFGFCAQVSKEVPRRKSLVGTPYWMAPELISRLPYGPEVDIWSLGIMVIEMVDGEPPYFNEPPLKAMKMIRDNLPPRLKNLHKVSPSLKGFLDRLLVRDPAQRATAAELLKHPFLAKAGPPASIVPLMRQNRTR

Compound | residual activity [1] [%] | residual activity [2] [%] | residual activity [3] [%] | residual activity (Homo sapiens [4]) [%] | residual activity [5] [%] | residual activity [6] [%] | residual activity (Homo sapiens [7]) [%] | residual activity [8] [%] | residual activity [9] [%] | residual activity [10] [%] | inhibition [11] [%] | residual activity [12] [%]
CC1=C(C(=O)Nc2cc3cn[nH]c3cc2F)C(c2ccc(C(F)(F)F)cc2)CC(=O)N1 (centres undefined) | 95 | 71 | 82 | 117 | 101 |  |  |  |  |  |  | 
Cc1cncc2cccc(S(=O)(=O)N3CCCNC[C@@H]3C)c12 | 99 | 125 | 84 | 82 |  |  |  |  |  |  |  | 
C[C@@H](N)[C@H]1CC[C@H](C(=O)Nc2ccncc2)CC1 |  |  |  |  |  | 103 | 105 | 106 | 101 | 61 | 43 | 93
O=S(=O)(c1cccc2cnccc12)N1CCCNCC1 [FASUDIL] |  |  |  |  |  | 108 | 70 | 115 | 111 | 51 | 38 | 34
CCn1c(-c2nonc2N)nc2cnc(Oc3cccc(NC(=O)c4ccc(OCCN5CCOCC5)cc4)c3)cc21 [GSK-269962A] |  |  |  |  | 101 |  |  |  |  |  |  | 
